Converted amounts (≈) assume the structure as drawn. Where a SMILES comes first, the peptide text is derived from it. Bridges are numbered along the chain shown (N, C = ends).
Experiments:
U87 glioblastoma cells [1] = test: Cell proliferation test (crystal violet), U87; format: cell-based, human
Excerpt: (§1) The ATCC (American Type Culture Collection, Rockville, MD, United States) cancer cell lines U87 (glioblastoma), MDA-MB231 (breast cancer) and LS174 (colon adenocarcinoma) were routinely cultured in DMEM supplemented with 10% fœtal bovine serum (FBS), 1% l-glutamine and 100 IU/mL penicillin/streptomycin. […] Rat SK2 cDNA cloned into pJA5 plasmid was a gift from Dr. Skolnik (university Langone Medical center, New York). Human SK3 cDNA cloned into Pipru vector was a king gift from Pr. Soriani (Université Côte d’Azur, CNRS, Inserm, Nice, France).
The effect of the P01 peptide on cell proliferation was studied. The human cell lines U87, MDA-MB231 or LS174 (5,000 cells per well) were treated with 2; 5 and 10 μg/mL of P01 peptide. The plates were placed at 37°C for 72 h. Cellular proliferation was quantified at 560 nm by a spectrophotometer (Thermo-Multiskan EX, Shanghai, China) after treatment with 1% glutaraldehyde and staining with 0.1% crystal violet.
Every 24 h, a series of wells was washed with PBS, the cells were fixed with 1% glutaraldehyde, and preserved in PBS to follow the kinetics of proliferation. After 72 h, the cells were stained with crystal violet 0.1% and quantified by measuring the absorbance at 560 nm using a spectrophotometer (Thermo-Multiskan EX, Shanghai, China).

[2] = tested on: MDA-MB231 breast cancer cells; test: Cell migration assay (modified Boyden chamber), MDA-MB231; format: cell-based, human; conditions: 50 μg/mL, 5 h, fibronectin 10 μg/mL coating, n = 3
Excerpt: as §1
Cell migration assay was performed using modified Boyden chamber (NeuroProbe Inc., Bethesda, MD, United States) as previously described ([Sarray et al., 2007]). Membranes were coated with fibrinogen (Fg) (50 μg/mL), fibronectin (Fn) (10 μg/mL), collagen type I (Coll-I) (50 μg/mL) for U87, MDA-MB231 and LS174 cells respectively, for 2 h at 37°C. Cells were harvested as a single cell suspension (10^6 cells/mL) and treated with P01 at 50 μg/mL. Then added to pre-coated membranes and allowed to migrate for 5 h at 37°C in Boyden chamber. Cells were fixed on the underside of the membrane, stained by 0.1% crystal violet and migration was quantified by measuring the absorbance at 560 nm using a spectrophotometer (Thermo-Multiskan EX, Shanghai, China).

U87 glioblastoma cells [3] = test: Cell adhesion assay, U87; format: cell-based, human; conditions: n = 3; for inhibition of adhesion: 50 μg/mL P01, 2 h
Excerpt: as §1
(§2) Adhesion assays were performed as previously described by ([Sarray et al., 2007]). Glioblastoma U87 cells in suspension (10^6 cells/mL) were treated with 50 μg/mL of P01 and deposited on wells coated with purified extracellular matrix (ECM): Fg at 50 μg/mL; Fn at 10 μg/mL; Coll-I at 50 μg/mL; laminin (Lam) at 15 μg/mL or poly-L-lysine (PL) at 20 μg/mL for U87. MDA-MB231 and LS174 cells were also used in their adequate ECM: Fg and Coll-I respectively. They were incubated to adhere to the substrate for 2 h or 24 h at 37°C. After washing, attached cells were fixed, stained by 0.1% crystal violet, lysed with 1% SDS and quantified by measuring absorbance at 560 nm. The specific adhesion is obtained by subtracting the absorbance obtained in the absence of adhesion substrate (no specific control). To study the dose-response effect, different concentrations of P01 were used (25–100 μg/mL) and the IC50 value was determined.

[4] = tested on: MDA-MB231 breast cancer cells; test: Cell adhesion assay, MDA-MB231; format: cell-based, human; conditions: data not shown
Excerpt: as §1
as §2, with “To study the dose-response effect, different concentrations of P01 were used (25–100 μg/mL) and the IC50 value was determined.” left out

[5] = tested on: LS174 colon adenocarcinoma cells; test: Cell adhesion assay, LS174; format: cell-based, human; conditions: data not shown
Excerpt: as §1
as §2, with “To study the dose-response effect, different concentrations of P01 were used (25–100 μg/mL) and the IC50 value was determined.” left out

αvβ3 integrin = test: U87 cell adhesion in presence of anti-integrin antibodies, αvβ3; format: cell-based, human; conditions: 50 μg/mL P01, 30 min pre-incubation, 2 h at 37°C, anti-αvβ3 (1/200), n = 3
Procedure: (§3) To study the implication of integrins in the P01 peptide activity, adhesion assays using anti-integrin blocking antibodies: anti- α1β1 (1/200), anti- αvβ3 (1/200), anti- α5 (1/200) and anti- β3 (1/200) were performed as described above, except that cells were pretreated with the active peptide P01 at 50 μg/mL.

α5 integrin = test: U87 cell adhesion in presence of anti-integrin antibodies, α5; format: cell-based, human; conditions: 50 μg/mL P01, 30 min pre-incubation, 2 h at 37°C, anti-α5 (1/200), n = 3
Procedure: as §3

human SK3 channel = test: Whole-cell patch clamp, human SK3 in HEK293T cells; format: cell-based; conditions: human SK3 in HEK cells, currents recorded at 0 mV, pCa 6
Excerpt: as §1
HEK293T-hSK3 and HEK293-rSK2 cells were selected using the puromycin and neomycin resistance gene respectively. HEK cells were routinely cultured in DMEM supplemented with 5% FBS and 1% l-glutamine. All cell lines were maintained at 37°C in a humid atmosphere of 5% CO2 in air.
Experiments were performed with cells seeded into 35-mm Petri dishes at 3,000 to 6,000 cells per cm^2. All experiments were performed using the conventional whole-cell recording configuration of the patch-clamp technique ([Girault et al., 2011]). For HEK cells expressing SK2 or SK3 channels, voltages clamp ramp protocols were used with a duration of 2 s, with varying voltages - 100 to +100 mV, with a holding potential of 0 mV. […] Also, at 0 mV, the membrane potential currents will be recorded mainly K^+ currents and not Cl^− currents.

Structure (SMILES): CC[C@H](C)[C@H](NC(=O)[C@@H]1CCCN1C(=O)[C@H](CCC(=O)O)NC(=O)[C@@H]1CSSC[C@@H]2NC(=O)[C@H](Cc3c[nH]cn3)NC(=O)[C@H](CCC(=O)O)NC(=O)[C@@H]3CCCN3C(=O)[C@@H]3CSSC[C@H](NC(=O)[C@H](CCCCN)NC(=O)[C@H](CC(=O)O)NC(=O)[C@H](CC(N)=O)NC(=O)[C@H](CC(=O)O)NC(=O)[C@H](CSSC[C@H](NC(=O)[C@H](CO)NC(=O)[C@@H](N)C(C)C)C(=O)N[C@@H](CCC(=O)O)C(=O)N[C@@H](CC(=O)O)C(=O)N3)NC(=O)[C@H](CCCCN)NC(=O)[C@H](C)NC(=O)[C@H](CCC(N)=O)NC(=O)[C@H](C)NC(=O)[C@H](CCCCN)NC(=O)[C@H](CCC(N)=O)NC(=O)[C@H]([C@@H](C)O)NC(=O)[C@H](CO)NC2=O)C(=O)N[C@@H](C(C)C)C(=O)N1)C(=O)O [P01] (H-VSCEDCPEHCSTQKAQAKCDNDKCVCEPI-OH; disulfide 3-19, 6-24, 10-26 (inferred); N-terminus and C-terminus assumed)
- IC50 (viability/proliferation) (U87 glioblastoma cells [1]; 72 h of incubation): 10 µg/mL (≈ 3.15 µM)
- kinetic effect on proliferation (U87 glioblastoma cells [1]; P01 at 10 μg/mL, time course to 72 h, n = 3): inhibition appeared after 48 h of treatment
- effect on migration [2]: no effect
- effect on adhesion after 24 h, Fg and Fn (U87 glioblastoma cells [3]; Fg and Fn, 50 μg/mL P01, 24 h): stayed active on Fg and Fn
- inhibition of adhesion (U87 glioblastoma cells [3]; fibrinogen (Fg), 37°C): 41%
- IC50 (adhesion to Fg) (U87 glioblastoma cells [3]; fibrinogen, 25–100 μg/mL, 2 h): 48.86 µg/mL (≈ 15.4 µM)
- inhibition of adhesion (U87 glioblastoma cells [3]; fibronectin (Fn), 37°C): 38%
- IC50 (adhesion to Fn) (U87 glioblastoma cells [3]; fibronectin, 25–100 μg/mL, 2 h): 62.04 µg/mL (≈ 19.5 µM)
- inhibition of adhesion (U87 glioblastoma cells [3]; poly-L-lysine (Pl)): no inhibition could be observed
- effect on adhesion after 24 h, Pl (U87 glioblastoma cells [3]; poly-L-lysine (Pl), 50 μg/mL P01, 24 h): an inhibition effect on Pl appeared
- effect on adhesion [4]: not affected
- effect on adhesion [5]: not affected
- effect on adhesive function of αvβ3 (αvβ3 integrin): reduced the adhesive function
- effect on adhesive function of α5 (α5 integrin): reduced the adhesive function
- effect on SK3 current (human SK3 channel): no effect

From article PMC10326281, “Insights into the mechanisms governing P01 scorpion toxin effect against U87 glioblastoma cells oncogenesis” (Frontiers in Pharmacology, 2023)
